Experimental findings from ChEMBL document CHEMBL1201862, “PubChem BioAssay data set” (2004) are described below.

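How tested: cells in 96-well plates exposed to compound for 48 hours at five concentrations. GI50 = concentration required for 50% inhibition of growth.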 The source made the active and inactive calls. No stated cut-off is given here; in the data, active = GI50 up to about 1.1 µM and inactive = higher. Some results are limits rather than exact numbers.

What all share (test): NCI-60 cell line screen, 48 h
The subject of experiment [1] is MOLT-4.
For experiment [2], the system named is HCT-116.
In experiment [3] the test system is DLD-1.
Experiment [4] has as its system SR.
Experiment [5] has as its system UO-31.
The subject of experiment [6] is U-251.
The subject of experiment [7] is OVCAR-8.
For experiment [8], the system named is SN12C.
Experiment [9] relates to OVCAR-5.
Experiment [10] relates to HCC 2998.
For experiment [11], the system named is K562.
The subject of experiment [12] is NCI-H460.
Experiment [13] has as its system SK-OV-3.
The subject of experiment [14] is HL-60.
Experiment [15] deals with MDA-MB-231.
The test system of experiment [16] is PC-3.
Experiment [17] relates to DU-145.
In experiment [18] the test system is Hs-578T.
Experiment [19] deals with MCF7.
Experiment [20] relates to T47D.

Regarding `Cn1cnnc1Sc1c([N+](=O)[O-])ncn1C`, the GI50 in experiment [1] is 31 µM (inactive); in experiment [2], > 100 µM (inactive); in experiment [3], 38.5 µM (inactive); in [4] it was 26.5 µM (inactive); in [5], > 100 µM (inactive); in [6], > 100 µM (inactive). For the same molecule, the GI50 in [7] was > 100 µM (inactive); in experiment [8], > 100 µM (inactive); in experiment [9], > 100 µM (inactive); in experiment [10] it was > 100 µM (inactive); in experiment [11], 29.2 µM (inactive); in [12], > 100 µM (inactive). The GI50 in [13] was > 100 µM (inactive).

Regarding `NC(=O)c1cccc([N+](=O)[O-])c1`, the GI50 in experiment [1], in experiment [3], in experiment [5], in experiment [6], in [7] and in [8] was > 100 µM (inactive) throughout. Besides, the GI50 in [14], in [10], in [11], in [12] and in experiment [13] was > 100 µM (inactive) each time.

As for `N#CC(C(=O)/C(=N/NC(=O)c1ccccc1O)C(C#N)c1ccc(Cl)cc1)c1ccc(Cl)cc1` (stereo not drawn), the GI50 is > 10 µM (inactive) in experiment [1]; 17.4 µM (inactive) in [2]; 11.9 µM (inactive) in experiment [3]; 17.1 µM (inactive) in experiment [5]; 10.6 µM (inactive) in [6]; 13.4 µM (inactive) in [7]. Also, the GI50 in experiment [8] was 13.2 µM (inactive); in experiment [9], 20 µM (inactive); in experiment [14], 15.5 µM (inactive); in experiment [11], 19.2 µM (inactive); in experiment [12], 15.7 µM (inactive); in experiment [13], 30.8 µM (inactive).

`C/C1=N\[N-]C(=O)c2ccccc2C(=O)N/N=C(\C)c2cccc1n2.O=[N+]([O-])[O-].[Zn+2]`: the GI50 in experiment [1], in experiment [2], in experiment [3], in experiment [5], in experiment [6] and in experiment [7] was > 100 µM (inactive) each time. The GI50 in experiment [8], in [9], in experiment [10], in experiment [11], in experiment [12] and in experiment [13] was > 100 µM (inactive) throughout.

Turning to `CSc1ccc2c(cc1=O)C(NC(=O)c1ccccc1)CCc1cc(O)c(O)c(O)c1-2` (stereo not drawn), the GI50 was 21.3 µM (inactive) in experiment [1]; 18.5 µM (inactive) in [2]; 16.7 µM (inactive) in [3]; 77.8 µM (inactive) in experiment [5]; 6.37 µM (inactive) in experiment [6]; 37.4 µM (inactive) in experiment [7]. Moreover, the GI50 is 18.4 µM (inactive) in experiment [8]; > 100 µM (inactive) in experiment [9]; 7.43 µM (inactive) in [14]; 4.84 µM (inactive) in experiment [10]; 10.9 µM (inactive) in experiment [11]; 19 µM (inactive) in experiment [12]. In [13], the GI50 is 5.71 µM (inactive).

Consider `c1ccc(CN(Cn2cccn2)Cn2cccn2)nc1`, for which the GI50 was > 100 µM (inactive) in [1]; 61.5 µM (inactive) in experiment [2]; 87.3 µM (inactive) in experiment [3]; > 100 µM (inactive) in experiment [4]; > 100 µM (inactive) in experiment [5]; > 100 µM (inactive) in [6]. Moreover, the GI50 in experiment [7] is > 100 µM (inactive); in experiment [8], > 100 µM (inactive); in experiment [14], 47.8 µM (inactive); in [11], > 100 µM (inactive); in [12] it was > 100 µM (inactive); in [13], > 100 µM (inactive).

On to `CCCCCCCCCC1CC(=O)OC23CCCC(=O)C12O3` (stereo not drawn), for which the GI50 is 26.7 µM (inactive) in experiment [1]; > 100 µM (inactive) in experiment [2]; 98.6 µM (inactive) in experiment [3]; > 100 µM (inactive) in experiment [5]; 97.1 µM (inactive) in experiment [6]; 52.1 µM (inactive) in [7]. Also, the GI50 in experiment [8] was > 100 µM (inactive); in experiment [9], > 100 µM (inactive); in [14], 26.7 µM (inactive); in [10] it was 56.8 µM (inactive); in experiment [11], 55.1 µM (inactive); in experiment [12], > 100 µM (inactive). In experiment [13], the GI50 is > 100 µM (inactive).

Regarding `CN(CCNC(=O)c1cn(C)c2c1ccc1cc(Cl)ccc12)CCNC(=O)c1cn(C)c2c1ccc1cc(Cl)ccc12`, the GI50 in experiment [1] is 5.01 µM (inactive); in experiment [2] it was 1.71 µM (inactive); in experiment [4], 5.11 µM (inactive); in experiment [5], 1.53 µM (inactive); in [6] it was 7.59 µM (inactive); in experiment [7] it was 6 µM (inactive). Further, the GI50 was 1.78 µM (inactive) in [8]; 1.97 µM (inactive) in experiment [9]; 6.62 µM (inactive) in [15]; 3.26 µM (inactive) in experiment [14]; 1.49 µM (inactive) in experiment [10]; 5.5 µM (inactive) in [16]. For the same molecule, the GI50 is 1.73 µM (inactive) in experiment [17]; 5.96 µM (inactive) in experiment [11]; 3.24 µM (inactive) in [12]; 1.94 µM (inactive) in [18]; 1.86 µM (inactive) in experiment [19]; 1.56 µM (inactive) in experiment [13]. Moreover, the GI50 in experiment [20] is 2.13 µM (inactive).

With `N#Cc1ccc2cc3c(cc2c1)OCO3`, the GI50 in [1] was 49.2 µM (inactive); in experiment [2], 91 µM (inactive); in experiment [3] it was > 100 µM (inactive); in [5], 21.5 µM (inactive); in experiment [6], 80.2 µM (inactive); in experiment [8], > 100 µM (inactive). In addition, the GI50 in [9] is 76.6 µM (inactive); in experiment [14], 77.1 µM (inactive); in experiment [10], > 100 µM (inactive); in experiment [11], 89.5 µM (inactive); in experiment [12] it was > 100 µM (inactive); in experiment [13], > 100 µM (inactive).

`CCC(=O)Oc1c2ccsc2c(OC(=O)CC)c2ccsc12`: the GI50 was 0.75 µM (active) in experiment [1]; 0.332 µM (active) in experiment [2]; 0.297 µM (active) in experiment [4]; 0.51 µM (active) in [5]; 0.389 µM (active) in [6]; 0.366 µM (active) in experiment [7]. For the same molecule, the GI50 in experiment [8] was 0.353 µM (active); in [9], 1.88 µM (inactive); in experiment [15] it was 0.232 µM (active); in experiment [14], 0.201 µM (active); in [10] it was 1.93 µM (inactive); in [16] it was 0.339 µM (active). Besides, the GI50 is 0.262 µM (active) in [17]; 0.461 µM (active) in experiment [11]; 1.89 µM (inactive) in [12]; 0.372 µM (active) in experiment [18]; 1.45 µM (inactive) in experiment [19]; 6.62 µM (inactive) in experiment [13]. The GI50 in [20] was 1.56 µM (inactive).

In the case of `CC(C)N(C(C)C)P(OCCC#N)OC1CC(n2cnc3c(=O)[nH]cnc32)OC1COC(=O)NCCCCCCNC(=O)OC(C)(C)c1ccc(-c2ccccc2)cc1` (stereo not drawn), the GI50 in [1] was 18.7 µM (inactive); in experiment [2], 39.1 µM (inactive); in experiment [3], 43.3 µM (inactive); in experiment [5] it was 17.5 µM (inactive); in experiment [6] it was 21.7 µM (inactive); in experiment [7] it was 34.4 µM (inactive). Moreover, the GI50 in experiment [8] was 23.7 µM (inactive); in [9], > 100 µM (inactive); in experiment [14], 14.7 µM (inactive); in [10] it was 25.5 µM (inactive); in experiment [11], 13.7 µM (inactive); in [12] it was 22.9 µM (inactive). Further, the GI50 in [13] was 39.4 µM (inactive).

Take `NC1=NCCN1CC(=O)O` [CYCLOCREATINE]: the GI50 in experiment [1], in experiment [2], in [4], in experiment [5], in experiment [6] and in experiment [7] was > 1000 µM (inactive) throughout. Further, the GI50 in experiment [8], in [9], in experiment [15], in experiment [14], in experiment [10] and in [16] was > 1000 µM (inactive) each time. In addition, the GI50 in experiment [17] is > 1000 µM (inactive); in experiment [11], > 1000 µM (inactive); in experiment [12] it was > 1000 µM (inactive); in experiment [18], 4040 µM (inactive); in experiment [19] it was > 1000 µM (inactive); in experiment [13], > 1000 µM (inactive). The GI50 in [20] is > 1000 µM (inactive).

For `COC(=O)C1CC/C(=N/C2c3ccccc3-c3ccccc32)N1` (stereo not drawn), the GI50 is 24.2 µM (inactive) in [1]; > 100 µM (inactive) in experiment [2]; > 100 µM (inactive) in experiment [3]; > 100 µM (inactive) in experiment [5]; > 100 µM (inactive) in experiment [6]; > 100 µM (inactive) in [7]. The GI50 in [8] was > 100 µM (inactive); in [9], > 100 µM (inactive); in experiment [14], > 100 µM (inactive); in experiment [10], 57.9 µM (inactive); in experiment [11] it was > 100 µM (inactive); in experiment [12], 32.7 µM (inactive). For the same molecule, the GI50 in experiment [13] was > 100 µM (inactive).

Regarding `COc1ccc2c(c1)C1C(CO2)C(c2ccccc2)=NN1c1ccccc1` (stereo not drawn), the GI50 in experiment [1] is 94.8 µM (inactive); in experiment [2] it was > 100 µM (inactive); in experiment [3], > 100 µM (inactive); in [5], > 100 µM (inactive); in [6], > 100 µM (inactive); in experiment [7] it was > 100 µM (inactive). Moreover, the GI50 in experiment [9] is > 100 µM (inactive); in [14] it was 99.5 µM (inactive); in [10], > 100 µM (inactive); in experiment [11], > 100 µM (inactive); in [12], > 100 µM (inactive); in experiment [13] it was > 100 µM (inactive).
